Measurements taken from US12157741B2, “Macrocyclic inhibitors of DYRK1A” (DANA-FARBER CANCER INSTITUTE, INC., priority 2018, dated 2024).
Read-outs that look alike come from different tables or passages of the source.

Tests used:
[1] = target: various enzymes (Homo sapiens, UniProt Q16584); conditions: MLK3; 1 uM
Description: (§2) Ambit profiling from Eurofins (formerly Discoverx) was conducted in accordance with the manufacturer's instructions.

[2] = target: various enzymes (Homo sapiens, UniProt P00533); conditions: EGFR; 1 uM
Description: as §2

[3] = target: various enzymes (Homo sapiens, UniProt O94921); conditions: PFTK1; 1 uM
Description: as §2

[4] = target: T1, various enzymes (Homo sapiens, UniProt Q9NWZ3); conditions: IRAK4; 1 uM
T1 sequence (Q9NWZ3 1-460): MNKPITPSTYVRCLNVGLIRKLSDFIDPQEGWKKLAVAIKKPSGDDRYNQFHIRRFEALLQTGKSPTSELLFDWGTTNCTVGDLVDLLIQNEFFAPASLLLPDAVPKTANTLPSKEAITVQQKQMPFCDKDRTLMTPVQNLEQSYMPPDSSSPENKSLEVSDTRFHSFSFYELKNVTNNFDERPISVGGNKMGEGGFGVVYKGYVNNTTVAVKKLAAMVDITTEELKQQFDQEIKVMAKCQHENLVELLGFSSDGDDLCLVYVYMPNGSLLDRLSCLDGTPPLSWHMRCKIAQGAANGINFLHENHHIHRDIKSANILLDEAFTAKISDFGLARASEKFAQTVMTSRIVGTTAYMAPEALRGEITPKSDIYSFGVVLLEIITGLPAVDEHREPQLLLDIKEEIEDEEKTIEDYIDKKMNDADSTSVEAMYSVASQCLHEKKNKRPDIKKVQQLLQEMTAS
Description: as §2

[5] = target: various enzymes (Homo sapiens, UniProt P00533, L858R)
Description: as §2

[6] = target: various enzymes (Homo sapiens, UniProt P23458); conditions: 1 uM
Description: as §2

[7] = target: various enzymes (Homo sapiens, UniProt P31751); format: binding; conditions: compound 1 uM
Description: (§1) Ambit profiling was conducted in accordance with the manufacturer's instructions.

[8] = target: various enzymes (Homo sapiens, UniProt Q9HBH9); format: binding; conditions: compound 1 uM
Description: as §1

[9] = target: various enzymes (Homo sapiens, UniProt Q8IY84); format: binding; conditions: compound 1 uM
Description: as §1

[10] = target: various enzymes (Homo sapiens, UniProt Q96SB4); format: binding; conditions: compound 1 uM
Description: as §1

[11] = target: various enzymes (Homo sapiens, UniProt P50750); format: binding; conditions: compound 1 uM
Description: as §1

[12] = target: various enzymes (Homo sapiens, UniProt P49137); format: binding; conditions: compound 1 uM
Description: as §1

[13] = target: various enzymes (Homo sapiens, UniProt P10721, L576P); format: binding
Description: as §1

[14] = target: various enzymes (Homo sapiens, UniProt Q96PN8); format: binding; conditions: compound 1 uM
Description: as §1

[15] = target: various enzymes (Homo sapiens, UniProt O43318); format: binding; conditions: compound 1 uM
Description: as §1

[16] = target: various enzymes (Homo sapiens, UniProt O15197); format: binding; conditions: compound 1 uM
Description: as §1

[17] = target: various enzymes (Homo sapiens, UniProt Q99683); format: binding; conditions: compound 1 uM
Description: as §1

[18] = target: various enzymes (Homo sapiens, UniProt P00533, DELINS747-751S); format: binding; design: other: EGFR(L747-T751del, Sins); 1 uM; other: compound 1 uM; conditions: compound 1 uM
Description: as §1

[19] = target: various enzymes (Homo sapiens, UniProt P00533, DEL747-752/P753S); format: binding; design: other: EGFR(L747-S752del, P753S); 1 uM; other: compound 1 uM
Description: as §1

[20] = target: T2, various enzymes (Homo sapiens, UniProt P36888); format: binding; design: other: FLT3(ITD); 1 uM; other: compound 1 uM; conditions: compound 1 uM
T2 sequence (P36888 1-993): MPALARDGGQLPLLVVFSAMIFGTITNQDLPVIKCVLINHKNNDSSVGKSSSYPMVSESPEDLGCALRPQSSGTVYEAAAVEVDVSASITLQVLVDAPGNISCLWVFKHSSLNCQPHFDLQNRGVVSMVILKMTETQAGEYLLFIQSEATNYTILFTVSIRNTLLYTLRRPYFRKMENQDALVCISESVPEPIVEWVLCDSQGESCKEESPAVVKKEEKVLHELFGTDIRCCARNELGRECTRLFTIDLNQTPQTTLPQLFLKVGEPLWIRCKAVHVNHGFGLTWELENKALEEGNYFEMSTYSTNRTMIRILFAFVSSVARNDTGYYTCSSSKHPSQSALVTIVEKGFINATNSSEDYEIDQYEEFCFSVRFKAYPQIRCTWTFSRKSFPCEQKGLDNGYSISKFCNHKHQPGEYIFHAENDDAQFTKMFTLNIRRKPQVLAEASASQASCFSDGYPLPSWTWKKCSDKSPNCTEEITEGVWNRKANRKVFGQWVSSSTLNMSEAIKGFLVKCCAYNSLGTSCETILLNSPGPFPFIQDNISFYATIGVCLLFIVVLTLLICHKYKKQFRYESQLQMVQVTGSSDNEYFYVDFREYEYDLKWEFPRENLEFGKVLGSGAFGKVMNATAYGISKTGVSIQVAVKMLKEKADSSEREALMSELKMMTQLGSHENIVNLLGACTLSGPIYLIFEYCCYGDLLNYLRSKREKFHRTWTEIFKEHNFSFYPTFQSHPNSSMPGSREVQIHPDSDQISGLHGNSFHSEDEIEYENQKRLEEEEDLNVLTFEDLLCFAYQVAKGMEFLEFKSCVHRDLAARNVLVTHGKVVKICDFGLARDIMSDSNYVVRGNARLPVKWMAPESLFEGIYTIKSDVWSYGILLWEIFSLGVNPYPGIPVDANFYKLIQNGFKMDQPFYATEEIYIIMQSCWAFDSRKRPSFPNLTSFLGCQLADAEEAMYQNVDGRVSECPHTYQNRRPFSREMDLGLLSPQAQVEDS
Description: as §1

Chain of various enzymes (Homo sapiens, UniProt P23458) (P23458 whole entry): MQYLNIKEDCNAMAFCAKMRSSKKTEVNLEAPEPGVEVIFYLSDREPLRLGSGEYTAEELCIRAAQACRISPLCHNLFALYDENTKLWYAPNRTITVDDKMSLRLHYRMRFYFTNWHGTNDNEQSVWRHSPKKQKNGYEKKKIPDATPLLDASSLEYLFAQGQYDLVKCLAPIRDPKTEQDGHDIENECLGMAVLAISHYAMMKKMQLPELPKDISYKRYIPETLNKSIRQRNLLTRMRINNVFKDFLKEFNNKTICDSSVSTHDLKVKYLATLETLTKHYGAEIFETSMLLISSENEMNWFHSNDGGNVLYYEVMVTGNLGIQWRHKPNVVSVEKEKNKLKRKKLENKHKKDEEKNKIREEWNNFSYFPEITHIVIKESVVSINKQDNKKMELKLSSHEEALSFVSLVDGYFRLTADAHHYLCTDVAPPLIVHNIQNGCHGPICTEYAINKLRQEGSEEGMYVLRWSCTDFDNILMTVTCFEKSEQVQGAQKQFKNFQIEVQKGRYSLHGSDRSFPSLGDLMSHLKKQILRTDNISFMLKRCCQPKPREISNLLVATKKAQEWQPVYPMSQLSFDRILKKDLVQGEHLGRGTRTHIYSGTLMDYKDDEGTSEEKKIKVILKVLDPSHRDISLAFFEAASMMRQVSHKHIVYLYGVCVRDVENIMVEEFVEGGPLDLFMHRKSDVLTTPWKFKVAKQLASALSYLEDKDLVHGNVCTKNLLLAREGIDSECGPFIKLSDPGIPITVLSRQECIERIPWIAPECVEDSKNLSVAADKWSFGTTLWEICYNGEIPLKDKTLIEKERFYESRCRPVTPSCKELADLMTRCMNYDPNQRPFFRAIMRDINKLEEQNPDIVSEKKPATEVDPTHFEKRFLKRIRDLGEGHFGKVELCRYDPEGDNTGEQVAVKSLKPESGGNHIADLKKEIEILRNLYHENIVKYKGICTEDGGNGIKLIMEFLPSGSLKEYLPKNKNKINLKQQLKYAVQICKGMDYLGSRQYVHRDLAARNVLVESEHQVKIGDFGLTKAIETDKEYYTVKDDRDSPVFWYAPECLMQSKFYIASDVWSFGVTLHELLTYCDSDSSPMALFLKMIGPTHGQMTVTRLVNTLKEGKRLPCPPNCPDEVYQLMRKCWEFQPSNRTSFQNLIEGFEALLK
Chain of various enzymes (Homo sapiens, UniProt Q8IY84) (Q8IY84 whole entry): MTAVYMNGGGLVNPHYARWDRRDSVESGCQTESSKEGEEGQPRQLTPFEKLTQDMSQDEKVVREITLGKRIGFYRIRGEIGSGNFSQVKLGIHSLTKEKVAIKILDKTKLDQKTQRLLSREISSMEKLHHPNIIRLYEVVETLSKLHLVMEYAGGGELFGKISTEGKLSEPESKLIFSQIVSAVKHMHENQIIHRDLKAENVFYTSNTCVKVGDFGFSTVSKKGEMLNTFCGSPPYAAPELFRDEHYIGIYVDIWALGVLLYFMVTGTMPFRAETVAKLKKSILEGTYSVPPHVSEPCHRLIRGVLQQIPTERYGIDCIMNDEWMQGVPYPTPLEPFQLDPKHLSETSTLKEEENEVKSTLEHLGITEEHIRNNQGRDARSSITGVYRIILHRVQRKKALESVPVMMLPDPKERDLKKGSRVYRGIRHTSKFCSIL
Chain of various enzymes (Homo sapiens, UniProt Q9HBH9) (Q9HBH9 whole entry): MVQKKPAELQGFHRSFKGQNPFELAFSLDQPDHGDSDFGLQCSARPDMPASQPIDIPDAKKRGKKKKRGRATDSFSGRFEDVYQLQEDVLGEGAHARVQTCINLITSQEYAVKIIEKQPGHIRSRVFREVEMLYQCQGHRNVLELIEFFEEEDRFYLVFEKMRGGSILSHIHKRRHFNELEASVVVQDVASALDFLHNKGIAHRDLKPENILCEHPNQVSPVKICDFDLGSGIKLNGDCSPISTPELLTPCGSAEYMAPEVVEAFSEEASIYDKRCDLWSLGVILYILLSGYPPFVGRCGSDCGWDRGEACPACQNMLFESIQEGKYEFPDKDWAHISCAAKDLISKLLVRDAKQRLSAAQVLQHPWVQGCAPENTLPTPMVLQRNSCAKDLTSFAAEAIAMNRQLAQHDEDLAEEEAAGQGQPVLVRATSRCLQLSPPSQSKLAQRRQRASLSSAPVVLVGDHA
Chain of various enzymes (Homo sapiens, UniProt P10721, L576P) (P10721 26-976 L576P): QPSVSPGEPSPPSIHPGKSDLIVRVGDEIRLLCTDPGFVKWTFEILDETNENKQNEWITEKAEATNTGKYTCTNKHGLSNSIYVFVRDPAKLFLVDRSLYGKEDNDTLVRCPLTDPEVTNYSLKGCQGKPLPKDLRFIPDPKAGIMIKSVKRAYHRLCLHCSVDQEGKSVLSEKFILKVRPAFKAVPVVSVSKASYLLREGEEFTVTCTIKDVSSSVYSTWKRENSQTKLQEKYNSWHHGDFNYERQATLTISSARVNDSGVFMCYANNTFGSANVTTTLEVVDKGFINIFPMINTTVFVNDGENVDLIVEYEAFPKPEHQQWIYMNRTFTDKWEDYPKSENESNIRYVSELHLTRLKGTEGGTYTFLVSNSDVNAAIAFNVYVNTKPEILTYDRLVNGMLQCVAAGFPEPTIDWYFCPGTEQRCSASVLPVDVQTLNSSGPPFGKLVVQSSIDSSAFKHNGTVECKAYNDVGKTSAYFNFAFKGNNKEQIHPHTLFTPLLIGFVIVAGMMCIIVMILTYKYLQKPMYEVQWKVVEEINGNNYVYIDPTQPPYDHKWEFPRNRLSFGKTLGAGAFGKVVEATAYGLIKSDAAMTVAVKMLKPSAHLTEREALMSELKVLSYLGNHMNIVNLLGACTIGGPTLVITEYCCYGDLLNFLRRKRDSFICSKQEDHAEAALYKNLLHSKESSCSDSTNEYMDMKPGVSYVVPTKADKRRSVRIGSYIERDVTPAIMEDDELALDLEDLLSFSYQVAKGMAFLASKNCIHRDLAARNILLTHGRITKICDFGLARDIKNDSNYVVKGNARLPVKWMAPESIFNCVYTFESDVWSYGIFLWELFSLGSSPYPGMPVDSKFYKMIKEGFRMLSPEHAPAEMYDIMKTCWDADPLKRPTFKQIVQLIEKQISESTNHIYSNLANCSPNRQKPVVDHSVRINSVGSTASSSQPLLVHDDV
Chain of various enzymes (Homo sapiens, UniProt P50750) (P50750 whole entry): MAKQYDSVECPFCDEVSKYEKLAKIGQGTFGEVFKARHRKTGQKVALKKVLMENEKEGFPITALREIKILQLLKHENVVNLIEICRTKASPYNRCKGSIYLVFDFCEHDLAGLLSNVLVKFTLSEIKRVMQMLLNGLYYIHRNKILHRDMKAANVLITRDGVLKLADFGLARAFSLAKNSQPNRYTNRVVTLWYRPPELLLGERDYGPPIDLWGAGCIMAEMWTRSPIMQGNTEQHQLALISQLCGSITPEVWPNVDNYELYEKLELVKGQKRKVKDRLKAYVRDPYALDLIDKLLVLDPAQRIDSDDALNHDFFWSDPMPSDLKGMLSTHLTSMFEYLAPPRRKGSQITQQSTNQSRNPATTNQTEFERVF
Chain of various enzymes (Homo sapiens, UniProt Q96SB4) (Q96SB4 whole entry): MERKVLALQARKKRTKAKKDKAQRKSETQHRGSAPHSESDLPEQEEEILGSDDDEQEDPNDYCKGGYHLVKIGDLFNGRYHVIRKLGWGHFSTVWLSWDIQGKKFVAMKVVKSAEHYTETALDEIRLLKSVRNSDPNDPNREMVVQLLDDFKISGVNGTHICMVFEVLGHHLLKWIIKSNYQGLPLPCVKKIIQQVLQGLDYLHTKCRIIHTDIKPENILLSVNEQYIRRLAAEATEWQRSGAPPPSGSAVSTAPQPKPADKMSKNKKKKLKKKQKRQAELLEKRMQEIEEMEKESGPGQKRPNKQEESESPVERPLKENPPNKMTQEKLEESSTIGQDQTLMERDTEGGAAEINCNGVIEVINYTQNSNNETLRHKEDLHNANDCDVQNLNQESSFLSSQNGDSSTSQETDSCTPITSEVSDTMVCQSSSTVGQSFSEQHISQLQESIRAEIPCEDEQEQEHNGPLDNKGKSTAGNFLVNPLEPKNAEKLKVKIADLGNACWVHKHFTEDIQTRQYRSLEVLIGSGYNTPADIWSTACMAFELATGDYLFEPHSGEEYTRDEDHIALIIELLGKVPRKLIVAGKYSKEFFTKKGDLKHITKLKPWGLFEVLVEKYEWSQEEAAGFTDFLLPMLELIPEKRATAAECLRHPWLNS
Chain of various enzymes (Homo sapiens, UniProt Q16584) (Q16584 whole entry): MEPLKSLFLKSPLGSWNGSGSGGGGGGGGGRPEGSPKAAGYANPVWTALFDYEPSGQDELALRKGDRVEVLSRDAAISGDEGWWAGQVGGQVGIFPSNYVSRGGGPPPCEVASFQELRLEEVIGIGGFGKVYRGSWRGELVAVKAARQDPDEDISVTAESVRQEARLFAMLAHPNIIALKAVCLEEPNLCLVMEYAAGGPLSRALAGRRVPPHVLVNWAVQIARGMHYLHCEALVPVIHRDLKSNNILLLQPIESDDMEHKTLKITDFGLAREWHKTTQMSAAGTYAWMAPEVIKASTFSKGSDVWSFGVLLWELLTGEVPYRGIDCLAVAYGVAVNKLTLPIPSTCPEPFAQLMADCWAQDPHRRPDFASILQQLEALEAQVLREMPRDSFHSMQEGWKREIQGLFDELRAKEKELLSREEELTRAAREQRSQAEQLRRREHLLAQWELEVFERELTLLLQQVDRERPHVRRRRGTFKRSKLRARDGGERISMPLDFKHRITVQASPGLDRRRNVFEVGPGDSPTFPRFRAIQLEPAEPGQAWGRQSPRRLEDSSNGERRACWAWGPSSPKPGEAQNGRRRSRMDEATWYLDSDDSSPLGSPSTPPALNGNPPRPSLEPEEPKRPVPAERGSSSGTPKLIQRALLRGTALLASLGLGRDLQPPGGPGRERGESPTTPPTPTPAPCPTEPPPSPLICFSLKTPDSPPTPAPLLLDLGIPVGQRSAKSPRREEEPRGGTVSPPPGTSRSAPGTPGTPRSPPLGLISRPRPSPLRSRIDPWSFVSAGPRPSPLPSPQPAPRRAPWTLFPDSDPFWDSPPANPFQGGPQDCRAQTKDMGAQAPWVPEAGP

CN1Cc2nn(C)cc2-c2cnc3[nH]cc(c3c2)-c2cnn(c2)CCCC1=O [Compound 41, (Z)-31,5-dimethyl-11H,21H,31H-5-aza-2(3,5)-pyrrolo[2,3-b]pyridina-1(4,1),3(4,3)-dipyrazolacyclononaphan-6-one]
Ambit profiling [1]: 69 | Ambit profiling [2]: 86 | Ambit profiling [3]: 69 | Ambit profiling [4]: 12 | Ambit profiling ([5]; EGFR(L856R), 1 uM): 87 | Ambit profiling ([6]; JAK1(JH1domain-catalytic)): 18 | Ambit profiling ([6]; JAK1(JH2domain-pseudokinase)): 9.1

CC(C)N1Cc2nn(C)cc2-c2cnc3[nH]cc(c3c2)-c2cn(nc2C(F)(F)F)CCCC1=O [Compound 45, (Z)-5-isopropyl-31-methyl-13-(trifluoromethyl)-11H,21H,31H-5-aza-2(3,5)-pyrrolo[2,3-b]pyridina-1(4,1),3(4,3)-dipyrazolacyclononaphan-6-one]
Ambit profiling: AKT2 [7]: 100 | Ambit profiling: MKNK2 [8]: 100 | Ambit profiling: NIM1 [9]: 100 | Ambit profiling: SRPK1 [10]: 4.5 | Ambit profiling: CDK9 [11]: 60 | Ambit profiling: MAPKAPK2 [12]: 100 | Ambit profiling: KIT(L576P) ([13]; compound 1 uM): 4.5 | Ambit profiling: TSSK3 [14]: 90 | Ambit profiling: TAK1 [15]: 4.1 | Ambit profiling: EPHB6 [16]: 4.8 | Ambit profiling: ASK1 [17]: 100 | Ambit profiling: EGFR(L747-T751del, Sins) [18]: 31 | Ambit profiling: EGFR(L747-S752del, P753S) ([19]; compound 1 uM): 15 | Ambit profiling: FLT3(ITD) [20]: 0.3

CN1Cc2nn(C)c(C#N)c2-c2cnc3[nH]cc(c3c2)-c2cn(nc2C(F)(F)F)CCCC1=O [Compound 48, (Z)-31,5-dimethyl-6-oxo-13-(trifluoromethyl)-11H,21H,31H-5-aza-2(3,5)-pyrrolo[2,3-b]pyridina-1(4,1),3(4,3)-dipyrazolacyclononaphane-35-carbonitrile]
Ambit profiling [1]: 80 | Ambit profiling [2]: 76 | Ambit profiling [3]: 91 | Ambit profiling [4]: 100 | Ambit profiling [5]: 63 | Ambit profiling ([6]; JAK1(JH1domain-catalytic)): 100 | Ambit profiling ([6]; JAK1(JH2domain-pseudokinase)): 100

COc1c2c(nn1C)CN(C(C)C)C(=O)CCCn1cc(c(C(F)(F)F)n1)-c1c[nH]c3ncc-2cc13 [Compound 50, (Z)-5-isopropyl-35-methoxy-31-methyl-13-(trifluoromethyl)-11H,21H,31H-5-aza-2(3,5)-pyrrolo[2,3-b]pyridina-1(4,1),3(4,3)-dipyrazolacyclononaphan-6-one]
Ambit profiling: AKT2 [7]: 86 | Ambit profiling: MKNK2 [8]: 53 | Ambit profiling: NIM1 [9]: 100 | Ambit profiling: SRPK1 [10]: 30 | Ambit profiling: CDK9 [11]: 47 | Ambit profiling: MAPKAPK2 [12]: 100 | Ambit profiling: KIT(L576P) [13]: 4 | Ambit profiling: TSSK3 [14]: 100 | Ambit profiling: TAK1 [15]: 9.1 | Ambit profiling: EPH86 [16]: 0.7 | Ambit profiling: ASK1 [17]: 100 | Ambit profiling: EGFR(L747-T751del, Sins) [18]: 22 | Ambit profiling: EGFR(L747-S752del, P753S) [19]: 14 | Ambit profiling: FLT3(ITD) [20]: 0.35
